{
  "source": "patent US20130245038A1",
  "about": "“Method For Selecting Or Identifying A Subject For V1B Antagonist Therapy” (ABBVIE DEUTSCHLAND GMBH & CO. KG, priority 2012, published 2013)",
  "assay_type_in_all_cases": "in vivo, human",
  "key": {"subjects with MDD [1]": {"tested_on": "subjects with MDD", "assay": "Randomized, placebo-controlled, double-blind clinical study in subjects with MDD: MASQ and HAM-D symptom scores", "excerpt": "High AVP was defined as ≧8.6 pg/mL, in a sample drawn at approximately 8 am or 2 pm on the day prior to initiation of study drug administration. Least squares means and standard errors are shown from analyses of covariance that included Day −1 (baseline) score as a covariate and factors for investigator, treatment, AVP class and treatment * AVP class interaction.\n(§1) A randomized, placebo-controlled, double-blind clinical study of the safety and pharmacodynamics of Compound A in subjects with MDD was conducted. Fifty-one subjects with a M.I.N.I.-confirmed primary diagnosis of MDD and a clinical global impression of severity of 3 or 4 were randomized to 800 mg Compound A QD (n=31) or matching placebo (n=20) for 7 days. Subjects were confined at clinical sites from two days prior to initial study drug administration until 24 hours after the last dose of study drug. HPA axis function was thoroughly assessed prior to study drug administration and on the 6th and 7th dosing days. A panel of genetic variants related to HPA axis function was assayed. One stated aim of this study was to define a means to identify MDD subjects more likely to respond to Compound A, prior to Compound A administration.\nAVP was the only parameter initially analyzed as a potential predictor of Compound A response as the daytime plasma level prior to study drug administration, measured at any of three times of day (approximately 8 am, 2 pm, and 10 pm), was the most prominent difference of baseline HPA axis function between MDD subjects in this study and HNV subjects of other studies.\nReceiver operator characteristic (ROC) analysis was used. In a first ROC, the dependent variable was treatment and the independent variables were the MASQ subscales. This ROC aimed to define MASQ scale score changes that were characteristic of subjects who received Compound A and not characteristic of those who received placebo. Such score changes can be thought to distinguish Compound A responders from Compound A non-responders. Of the five MASQ subscales, General Distress Mixed (GDM) and Depressive (GDD) subscales differentiated Compound A from placebo subjects. […] Similar results were obtained when the dependent variables were analyzed as percent, rather than absolute, change from baseline.\nThe interaction of AVP (high v normal) and treatment (Compound A v placebo) is shown below. The dependent variables were the MASQ scale scores and the Hamilton Depression Rating Scale (HAM-D)—version score on Day 7. The corresponding scale score on Day −2 was a covariate in each model. Each model included factors for investigator, AVP, treatment and the interaction of AVP and treatment. […] MASQ total scores were normalized to a 1 to 5 scale."}, "subjects with MDD [2]": {"tested_on": "subjects with MDD", "assay": "Randomized, placebo-controlled, double-blind clinical study in subjects with MDD: MASQ and HAM-D symptom scores", "remark": "listed apart in the source"}, "HPA axis activity [3]": {"tested_on": "HPA axis activity", "assay": "Urine glucocorticoids in healthy adults who received Compound A or placebo", "excerpt": "Higher urine glucocorticoids subjects are those in whom Compound A effects larger decreases of tonic HPA axis activity, and thus an appropriate population for treatment of MDD using a V1B antagonist."}, "[4]": {"tested_on": "physiological response to a stressor (CRH challenge)", "assay": "Cortisol reactivity to a CRH challenge in MDD subjects of the clinical study", "conditions": "maximum post-CRH serum cortisol divided by pre-CRH serum cortisol, Day 7", "excerpt": "as §1, with “High AVP was defined as ≧8.6 pg/mL, in a sample drawn at approximately 8 am or 2 pm on the day prior to initiation of study drug administration. The analysis of covariance model for Day 7 cortisol reactivity included Day −1 (baseline) cortisol reactivity as a covariate and factors for investigator, treatment, AVP class and treatment * AVP class interaction. A randomized,” for “A randomized,”, “A administration. […]” for “A administration.”"}, "HPA axis activity [5]": {"tested_on": "HPA axis activity", "assay": "HPA axis function measures (plasma ACTH, serum, saliva and urine cortisol, urine glucocorticoids) in MDD subjects of the clinical study", "conditions": "for Reduction of urine glucocorticoids compared to placebo: Day 6 to 7", "protocol": "Higher urine glucocortioids was defined as ≧3.44 mg per mg creatinine, in a 24-hour collection on the day prior to initiation of study drug administration. The analysis of covariance model for Day 6 to 7 urine glucocorticoids included Day −2 to −1 (baseline) urine glucocorticoids as a covariate and factors for investigator, treatment and treatment * baseline urine glucocorticoids interaction.\nas §1\nIn a ROC analysis, the dependent variable was responder status based on a cutoff on GDM of −0.53. The independent variable was baseline amount of urine glucocorticoids (the sum of cortisol, cortisone, alpha-tetrahydrocortisol, beta-tetrahydrocortisol and tetrahydrocortisone) collected during a 24-hour interval, divided by the amount of creatinine in the same urine collection. The optimal cutoff was 3.44 mg glucocorticoids per mg creatinine. This provided a sensitivity of 58% (14/24 Compound A responders included) and specificity of 67% (4 of 6 Compound A non-responders excluded). One Compound A subject was not included in this analysis due to missing urine glucocorticoid data."}, "[6]": {"conditions": "Compound A 800 mg QD for 7 days v placebo, MDD subjects"}, "[7]": {"conditions": "ROC, dependent variable treatment (Compound A 800 mg QD, n=31, v placebo, n=20), MASQ GDM score change, cutoff X −0.53"}, "[8]": {"conditions": "high AVP ≧8.6 pg/mL, Compound A 800 mg QD v placebo"}, "[9]": {"conditions": "ROC, dependent variable treatment (Compound A 800 mg QD, n=31, v placebo, n=20), MASQ GDD score change, cutoff X −0.58"}},
  "data": [
    {"smiles": "CCOc1ncccc1[C@]1(NC(=O)N2CCN(C3CCN(C)CC3)CC2)C(=O)N(S(=O)(=O)c2ccc(OC)cc2OC)c2ccc(C#N)cc21", "note": "[Compound A]", "values": [
      {"measurement": "ANCOVA factor for treatment on MASQ GDM and GDD subscales", "setting": "subjects with MDD [1]; [6]", "value": "statistically significant factors for treatment"},
      {"measurement": "False Negative", "setting": "subjects with MDD [1]; [7]", "value": 7},
      {"measurement": "True Positive", "setting": "subjects with MDD [1]; [7]", "value": 24},
      {"measurement": "Interaction of AVP (high v normal) and treatment, MASQ GDD score on Day 7", "setting": "subjects with MDD [1]; [8]", "value": "statistically significant"},
      {"measurement": "Interaction of AVP (high v normal) and treatment, MASQ GDM, AD and 7-item HAM-D scores on Day 7", "setting": "subjects with MDD [1]; [8]", "value": "numerically favorable trends"},
      {"measurement": "ANCOVA factor for treatment on MASQ AD, AA and GDA subscales", "setting": "subjects with MDD [2]; [6]", "value": "not"},
      {"measurement": "False Negative", "setting": "subjects with MDD [2]; [9]", "value": 3},
      {"measurement": "True Positive", "setting": "subjects with MDD [2]; [9]", "value": 28},
      {"measurement": "Interaction of urine glucocorticoids divided by creatinine (higher v lower) and treatment, MASQ GDM, GDD, GDA, AA and 17- and 7-item HAM-D", "setting": "subjects with MDD [2]; higher ≧3.44 mg per mg creatinine, 24-hour collection", "value": "numerically favorable trends"},
      {"measurement": "Interaction of urine glucocorticoids divided by creatinine (higher v lower) and treatment, MASQ and HAM-D scores on Day 7", "setting": "subjects with MDD [2]; higher ≧3.44 mg per mg creatinine, 24-hour collection, all dependent variables", "value": "not statistically significant"},
      {"measurement": "Symptom changes on MASQ and HAM-D", "setting": "subjects with MDD [2]; subset of subjects distinguished by AVP, copeptin and rs7088418/rs17169521 genotypes", "value": "more favorable symptom changes"},
      {"measurement": "Symptom changes on MASQ and HAM-D", "setting": "subjects with MDD [2]; subset of subjects distinguished by NR3C1 genotypes (rs10482672; similar for rs17100236)", "value": "unfavorable symptom changes"},
      {"measurement": "Relationship of baseline urine glucocorticoids and reduction of urine glucocorticoids compared to placebo", "setting": "HPA axis activity [3]", "value": "The same relationship has been observed"},
      {"measurement": "Physiological response to a stressor (CRH challenge) compared to placebo", "setting": "[4]; high AVP MDD subjects", "value": "lower physiological response to a stressor"},
      {"measurement": "Physiological response to a stressor (CRH challenge) compared to placebo", "setting": "[4]; normal AVP MDD subjects", "value": "limited or no difference of stress response"},
      {"measurement": "Neuroendocrine effects on plasma ACTH, serum cortisol, urine cortisol and total glucocorticoids, high AVP v normal AVP subjects", "setting": "HPA axis activity [5]; MDD subjects, comparison of the two AVP groups", "value": "did not differ"},
      {"measurement": "Reduction of urine glucocorticoids compared to placebo", "setting": "HPA axis activity [5]; higher urine glucocorticoids MDD subjects (≧3.44 mg per mg creatinine at baseline)", "value": "larger reductions of urine glucocorticoids"},
      {"measurement": "Reduction of urine glucocorticoids compared to placebo", "setting": "HPA axis activity [5]; lower urine glucocorticoids MDD subjects", "value": "limited or no difference of reduction of urine glucocorticoids"}
    ]}
  ]
}
